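96-well plates; 48 h exposure; 5 concentrations. Endpoints by linear interpolation between flanking doses. Not reached: highest tested concentration assigned. Definition used: TGI = concentration required for complete inhibition of growth.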
Key:
Experiment in all cases: NCI-60 cell line screen, 48 h
COLO 205 colon = system: COLO 205 colon
EKVX NSCLC = system: EKVX NSCLC
DU-145 prostate = system: DU-145 prostate
MDA-N = system: MDA-N
NCI-H460 lung = system: NCI-H460 lung
T-47D breast = system: T-47D breast
HOP-92 NSCLC = system: HOP-92 NSCLC
K-562 leukemia = system: K-562 leukemia
OVCAR-3 ovarian = system: OVCAR-3 ovarian
RXF 393 renal = system: RXF 393 renal
SK-MEL-5 melanoma = system: SK-MEL-5 melanoma
MOLT-4 leukemia = system: MOLT-4 leukemia
TK-10 renal = system: TK-10 renal
SN12C renal = system: SN12C renal
786-0 renal = system: 786-0 renal
SF-295 CNS = system: SF-295 CNS
ACHN renal = system: ACHN renal
SK-MEL-2 melanoma = system: SK-MEL-2 melanoma
MDA-MB-231 breast = system: MDA-MB-231 breast
SR leukemia = system: SR leukemia

| SMILES | TGI (COLO 205 colon) [µM] | TGI (EKVX NSCLC) [µM] | TGI (DU-145 prostate) [µM] | TGI (MDA-N) [µM] | TGI (NCI-H460 lung) [µM] | TGI (T-47D breast) [µM] | TGI (HOP-92 NSCLC) [µM] | TGI (K-562 leukemia) [µM] | TGI (OVCAR-3 ovarian) [µM] | TGI (RXF 393 renal) [µM] | TGI (SK-MEL-5 melanoma) [µM] | TGI (MOLT-4 leukemia) [µM] | TGI (TK-10 renal) [µM] | TGI (SN12C renal) [µM] | TGI (786-0 renal) [µM] | TGI (SF-295 CNS) [µM] | TGI (ACHN renal) [µM] | TGI (SK-MEL-2 melanoma) [µM] | TGI (MDA-MB-231 breast) [µM] | TGI (SR leukemia) [µM] |
| --- | --- | --- | --- | --- | --- | --- | --- | --- | --- | --- | --- | --- | --- | --- | --- | --- | --- | --- | --- | --- |
| COC(=O)[C@H](Cc1ccccc1)NC(=O)N1CCCN(C(=O)N[C@@H](Cc2ccccc2)C(=O)OC)CCCN(C(=O)N[C@@H](Cc2ccccc2)C(=O)OC)CCC1 | 34.8 | 53.5 | 34 | 45.8 | 81.5 | 34.8 | 30.3 | > 100 | 32.4 | 32.6 | 35.9 | 40.8 | 65.4 | 39.1 | 32.1 | 37.6 | 31.3 | 29.5 |  |  |
| COC(=O)C(C)(C)OCc1ccc(C2NC(=O)N(c3cccc(Cl)c3)C(=O)N2c2cccc(Cl)c2)cc1 (configuration not stated) | > 100 | 78.8 | > 100 | > 100 | > 100 |  | 69.7 | > 100 | > 100 | > 100 | 52.8 | > 100 |  | > 100 | > 100 | > 100 | > 100 | > 100 | > 100 | 96.6 |
| O=c1[nH]c2ccc(Cl)cc2c2oc(-c3ccccc3)nc12 | > 100 | 89.8 |  | > 100 | 36.9 | 50.4 | 52.2 | > 100 | 46.6 | 71.8 | 85.8 | > 100 | 80.7 | 41.8 | 30 | 46.6 | 51.3 | 57.5 | 43.4 | 62.3 |
| CC1=NNC(=O)C1C1CC(c2c[nH]c3ccccc23)=NNC1=S (configuration not stated) | > 100 | > 100 | > 100 | > 100 | > 100 | > 100 | > 100 | > 100 | > 100 | > 100 | > 100 | > 100 | > 100 | > 100 | > 100 | > 100 | > 100 | > 100 | > 100 |  |
| CCOC(O)(NC(=O)C(C(F)(F)F)C(F)(F)F)C(F)(F)F (configuration not stated) | > 100 | > 100 |  | > 100 |  | > 100 |  | > 100 |  | > 100 | > 100 | > 100 | > 100 | > 100 | > 100 |  | > 100 | > 100 |  | > 100 |
| Cc1ccc(Cc2n[nH]c(=O)n2/N=C\CC/C=N\n2c(Cc3ccc(C)cc3)n[nH]c2=O)cc1 | > 100 | > 100 | > 100 | > 100 |  | > 100 | 76.1 | > 100 | > 100 | 65.3 | > 100 | > 100 | > 100 | > 100 | 41 | > 100 | > 100 | 80.5 | > 100 |  |
| CC1=NOC2(C1)C(=O)Nc1ccccc12 (configuration not stated) | > 100 | > 100 | > 100 | > 100 | > 100 | > 100 |  | > 100 | > 100 | > 100 | > 100 | > 100 | > 100 | > 100 | > 100 | > 100 | > 100 | > 100 | > 100 | > 100 |
| O=S(=O)(N/N=C1\CC2CCC1C2)c1ccccc1 (configuration not stated) | > 100 | > 100 | > 100 | > 100 | > 100 |  | > 100 | > 100 | > 100 |  | > 100 | > 100 | > 100 | > 100 | > 100 | > 100 | > 100 | > 100 |  | > 100 |
| Cc1ccc(O)c(C(c2ccc([N+](=O)[O-])cc2)c2cc(C)ccc2O)c1 | 44.1 | 34.3 | 27.4 |  |  | 34.7 | 28.7 | > 100 | 19.9 | 26 | > 100 | 26.3 | 30.4 | 27.3 | 44.5 | 31.3 | 19.2 | 23.9 | 26.2 | 22.8 |
| Cc1nc2ccc(Cl)cc2c2c1CCS2 | > 100 |  | > 100 | > 100 | > 100 | > 100 |  | > 100 | > 100 | > 100 | 77.7 | 74.3 | > 100 | > 100 | > 100 | > 100 | > 100 | > 100 | > 100 | 86.6 |
| Cc1ncc([N+](=O)[O-])n1CCN(C)C(=O)CCCn1ccnc1[N+](=O)[O-] | > 100 | > 100 | > 100 | > 100 | > 100 | > 100 |  | > 100 | > 100 | > 100 | > 100 | > 100 | > 100 | > 100 | > 100 | > 100 | > 100 | > 100 | > 100 | > 100 |
| Cc1ccc(Cc2n[nH]c(=O)n2-c2ccccc2)cc1 |  |  | > 100 | > 100 | > 100 | 61.8 |  | > 100 |  | > 100 | > 100 | > 100 | > 100 | > 100 | > 100 | > 100 | > 100 | > 100 | > 100 | > 100 |
| COP(=O)(Cc1ccc(/C=C/C#N)o1)OC | > 100 | > 100 | > 100 |  | > 100 | > 100 | > 100 | > 100 | > 100 | > 100 |  | > 100 | > 100 |  | > 100 |  |  |  | > 100 | > 100 |
